Our source for the half-life values is US9617258B2, “Pyrrolo[2,3-d]pyrimidinyl, pyrrolo[2,3-b]pyrazinyl and pyrrolo[2,3-d]pyridinyl acrylamides” (Pfizer Inc., priority 2013, dated 2017).

A short description of this data set: Stability of JAK3 covalent inhibitors in human whole blood.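 Note: parent compound remaining over incubation time quantified by LC-MS/MS as peak area ratio against an internal standard, using pooled K2-EDTA blood.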 The class given is in vitro ADME. As to conditions: both sexes, whole blood, 37° C., read-out: Human blood stability t1/2.
Text: Stability of JAK3 Covalent Inhibitors in Rat and Human Whole Blood
Rat blood was collected from 3 male Sprague-Dawley rats (200-250 g, Charles River Laboratories) and pooled for each study. Human blood was collected from one male and one female healthy subjects at the Occupational Health & Wellness Center at Pfizer, Groton, CT and pooled for each study. Both rat and human blood was collected freshly into K2-EDTA tubes and kept on ice. An aliquot of the blood was transferred to microtubes and pre-warmed for 10 min at 37° C. using a heat block. […] An aliquot of the incubation mixture was removed at designated time points during the course of the incubation, mixed with an aliquot of acetonitrile containing an internal standard, vortexed and centrifuged. The resulting supernatants were removed and subjected to LC-MS/MS analyses to determine parent compound concentrations. Peak area ratios of the parent compound vs the internal standard were used to determine the % of parent compound remaining vs incubation time.
For the compound `C=CC(=O)N1CCC[C@@H](Nc2ncnc3[nH]cc(-c4cccnc4)c23)C1` [Example 26, 1-[(3R)-3-{[5-(pyridin-3-yl)-7H-pyrrolo[2,3-d]pyrimidin-4-yl]amino}piperidin-1-yl]prop-2-en-1-one], the half-life at 1 μM is above 6 h.
The result for `C=CC(=O)N1CCC(Nc2cnc3[nH]cc(C(=O)NC4CCCC4)c3n2)CC1` [Example 283, 2-[(1-acryloylpiperidin-4-yl)amino]-N-cyclopentyl-5H-pyrrolo[2,3-b]pyrazine-7-carboxamide] reads above 6 h.
Turning to `C=CC(=O)N1CCC[C@@H](Nc2ncnc3[nH]cc(-c4ccc(C)nc4)c23)C1` [Example 66, (R)-1-(3-((5-(6-methylpyridin-3-yl)-7H-pyrrolo[2,3-d]pyrimidin-4-yl)amino)piperidin-1-yl)prop-2-en-1-one], the half-life at 1 μM is above 6 h.
On to `C=CC(=O)N1C[C@H](Nc2ccnc3[nH]cc(C#N)c23)CC[C@@H]1C` [Example 165, 4-{[(3R,6S)-1-Acryloyl-6-methylpiperidin-3-yl]amino}-1H-pyrrolo[2,3-b]pyridine-3-carbonitrile], for which the half-life at 1 μM was above 5.82 h.
Take `C=CC(=O)N1C[C@H](F)C[C@@H](Nc2ncnc3[nH]ccc23)C1` [Example 10, 1-((3R,5R)-3-((7H-pyrrolo[2,3-d]pyrimidin-4-yl)amino)-5-fluoropiperidin-1-yl)prop-2-en-1-one]: the half-life at 1 μM was determined as 2.72 h.
As to `C=CC(=O)N1CCC(Nc2cnc3[nH]cc(C(=O)NCCOC)c3n2)CC1` [Example 275, 2-[(1-acryloylpiperidin-4-yl)amino]-N-(2-methoxyethyl)-5H-pyrrolo[2,3-b]pyrazine-7-carboxamide], the half-life at 1 μM is above 6 h.
Consider `C=CC(=O)N1CCC[C@@H](Nc2ncnc3[nH]cc(-c4ccc5c(cnn5C)c4)c23)C1` [Example 34, 1-[(3R)-3-{[5-(1-methyl-1H-indazol-5-yl)-7H-pyrrolo[2,3-d]pyrimidin-4-yl]amino}piperidin-1-yl]prop-2-en-1-one], for which the half-life at 1 μM was above 6 h.
In the case of `C=CC(=O)N[C@H]1C[C@H](Nc2cnc3[nH]cc(C(=O)NC(C)C)c3n2)C1` [Example 198, 2-{[trans-3-(acryloylamino)cyclobutyl]amino}-N-(propan-2-yl)-5H-pyrrolo[2,3-b]pyrazine-7-carboxamide] it was above 6 h.
In the case of `C=CC(=O)N1CC[C@H](F)[C@@H](Nc2ncnc3[nH]ccc23)C1` [Example 4, 1-((3S,4S)-3-((7H-pyrrolo[2,3-d]pyrimidin-4-yl)amino)-4-fluoropiperidin-1-yl)prop-2-en-1-one], the half-life at 1 μM was determined as 2.33 h.
As to `C=CC(=O)N1CCC(Nc2cnc3[nH]cc(-c4ccc(C)nc4)c3n2)CC1` [Example 199, 1-(4-{[7-(6-methylpyridin-3-yl)-5H-pyrrolo[2,3-b]pyrazin-2-yl]amino}piperidin-1-yl)prop-2-en-1-one], the half-life at 1 μM is above 6 h.
For `C=CC(=O)N1CC[C@@H]2CCN(c3nc(N)nc4[nH]ccc34)[C@@H]2C1` [Example 73, 1-[(3aS,7aS)-1-(2-Amino-7H-pyrrolo[2,3-d]pyrimidin-4-yl)octahydro-6H-pyrrolo[2,3-c]pyridin-6-yl]prop-2-en-1-one], the half-life at 1 μM was determined as 3.25 h.
Regarding `C=CC(=O)N1CCC[C@@H](Nc2ncnc3[nH]ccc23)C1` [Example 12, (R)-1-(3-((7H-Pyrrolo[2,3-d]pyrimidin-4-yl)amino)piperidin-1-yl)prop-2-en-1-one], the half-life at 1 μM was above 5.53 h.
Regarding `C=CC(=O)N1CCC(Nc2cnc3[nH]cc(C(=O)NC4CCC(F)(F)C4)c3n2)CC1` (stereo not drawn) [Example 259, 2-[(1-acryloylpiperidin-4-yl)amino]-N-(3,3-difluorocyclopentyl)-5H-pyrrolo[2,3-b]pyrazine-7-carboxamide], the half-life at 1 μM is above 6 h.
On to `C=CC(=O)N1CC(Nc2ncnc3[nH]ccc23)CCC1CO` (stereo not drawn) [Example 52, 1-[2-(Hydroxymethyl)-5-(7H-pyrrolo[2,3-d]pyrimidin-4-ylamino)piperidin-1-yl]prop-2-en-1-one], for which the half-life at 1 μM was above 5.97 h.
The result for `C=CC(=O)N1CCC(Nc2cnc3[nH]cc(C(=O)N[C@H]4CC[C@H](F)C4)c3n2)CC1` [Example 247, 2-[(1-acryloylpiperidin-4-yl)amino]-N-[(1S,3S)-3-fluorocyclopentyl]-5H-pyrrolo[2,3-b]pyrazine-7-carboxamide] reads 4.53 h; that for `C=CC(=O)N1CC(Nc2cnc3[nH]ccc3n2)C1` [Example 337, 1-(3-((5H-Pyrrolo[2,3-b]pyrazin-2-yl)amino)azetidin-1-yl)prop-2-en-1-one], 1.35 h; that for `C=CC(=O)N1C[C@@H](F)C[C@@H](Nc2ncnc3[nH]ccc23)C1` [Example 15, 1-((3R,5S)-3-((7H-Pyrrolo[2,3-d]pyrimidin-4-yl)amino)-5-fluoropiperidin-1-yl)prop-2-en-1-one], 3.87 h.
Regarding `C=CC(=O)N(C)C1CN(c2cnc3[nH]cc(C(=O)NC(C)C)c3n2)C1` [Example 187, 2-{3-[acryloyl(methyl)amino]azetidin-1-yl}-N-(propan-2-yl)-5H-pyrrolo[2,3-b]pyrazine-7-carboxamide], the half-life at 1 μM was above 6 h.
As for `C=CC(=O)N1CCC(Nc2cnc3[nH]cc(C(=O)N[C@H](C)CCC)c3n2)CC1` [Example 274, 2-[(1-acryloylpiperidin-4-yl)amino]-N-[(2R)-pentan-2-yl]-5H-pyrrolo[2,3-b]pyrazine-7-carboxamide], the half-life at 1 μM was above 6 h.
Turning to `C=CC(=O)N1CC[C@@H](Nc2cnc3[nH]cc(C(=O)NC(C)C)c3n2)[C@H](F)C1` [Example 291, 2-{[(3R,4R)-1-acryloyl-3-fluoropiperidin-4-yl]amino}-N-(propan-2-yl)-5H-pyrrolo[2,3-b]pyrazine-7-carboxamide], the half-life at 1 μM is 3.27 h.
Turning to `C=CC(=O)N1CCC(Nc2cnc3[nH]cc(C(=O)NCC(C)(F)F)c3n2)CC1` [Example 282, 2-[(1-acryloylpiperidin-4-yl)amino]-N-(2,2-difluoropropyl)-5H-pyrrolo[2,3-b]pyrazine-7-carboxamide], the half-life at 1 μM was 4.05 h.
In the case of `C=CC(=O)N1CCC[C@@H](Nc2ccnc3[nH]cc(C)c23)C1` [Example 47, 1-{(3R)-3-[(3-methyl-1H-pyrrolo[2,3-b]pyridin-4-yl)amino]piperidin-1-yl}prop-2-en-1-one] it was 5.26 h; in that of `C=CC(=O)N1C[C@H](Nc2ncnc3[nH]ccc23)C[C@H](N(C)C)C1` [Example 57, 1-((3R,5S)-3-((7H-Pyrrolo[2,3-d]pyrimidin-4-yl)amino)-5-(dimethylamino)piperidin-1-yl)prop-2-en-1-one], 1.35 h.
The result for `C=CC(=O)N1C[C@H](O)C[C@@H](Nc2ncnc3[nH]ccc23)C1` [Example 60, 1-((3R,5R)-3-((7H-Pyrrolo[2,3-d]pyrimidin-4-yl)amino)-5-hydroxypiperidin-1-yl)prop-2-en-1-one] reads above 6 h; that for `C=CC(=O)N1CCC[C@H]1CNc1cnc2[nH]cc(C(=O)NC(C)C)c2n1` [Example 177, 2-({[(2S)-1-acryloylpyrrolidin-2-yl]methyl}amino)-N-(propan-2-yl)-5H-pyrrolo[2,3-b]pyrazine-7-carboxamide], above 5.35 h; that for `C=CC(=O)N1C[C@H](C)C[C@H](Nc2ncnc3[nH]ccc23)C1` [Example 128, 1-[(3R,5S)-3-Methyl-5-(7H-pyrrolo[2,3-d]pyrimidin-4-ylamino)piperidin-1-yl]prop-2-en-1-one], 5.07 h.
For the compound `C=CC(=O)N1CCC[C@@H](Nc2ncnc3[nH]cc(-c4ccc(C(=O)N(C)C)cc4)c23)C1` [Example 27, 4-(4-{[(3R)-1-acryloylpiperidin-3-yl]amino}-7H-pyrrolo[2,3-d]pyrimidin-5-yl)-N,N-dimethylbenzamide], the half-life at 1 μM came to 0.767 h.
As for `C=CC(=O)N1CCN(c2cnc3[nH]cc(C(=O)NC(C)C)c3n2)CC1` [Example 174, 2-(4-acryloylpiperazin-1-yl)-N-(propan-2-yl)-5H-pyrrolo[2,3-b]pyrazine-7-carboxamide], the half-life at 1 μM was found to be 4.16 h.
In the case of `C=CC(=O)N1CC[C@@H]2CCN(c3ncnc4[nH]ccc34)[C@@H]2C1` (single isomer, unassigned) [Example 8], the half-life at 1 μM was found to be 3.2 h.
Turning to `O=C(/C=C/C(F)(F)F)N1CC[C@@H]2CCN(c3ncnc4[nH]ccc34)[C@@H]2C1` [Example 81, (2E)-4,4,4-trifluoro-1-[(3aS,7aS)-1-(7H-pyrrolo[2,3-d]pyrimidin-4-yl)octahydro-6H-pyrrolo[2,3-c]pyridin-6-yl]but-2-en-1-one], the half-life at 1 μM came to 0.282 h.
Take `C=CC(=O)N1CCC(Nc2cnc3[nH]cc(C(=O)NCC(C)C)c3n2)CC1` [Example 272, 2-[(1-acryloylpiperidin-4-yl)amino]-N-(2-methylpropyl)-5H-pyrrolo[2,3-b]pyrazine-7-carboxamide]: the half-life at 1 μM turned out to be 3.62 h.
In the case of `C=CC(=O)N1C[C@H](Nc2ncnc3[nH]ccc23)C[C@H](OC)C1` [Example 19, 1-((3R,5S)-3-((7H-Pyrrolo[2,3-d]pyrimidin-4-yl)amino)-5-methoxypiperidin-1-yl)prop-2-en-1-one] it was 3.51 h.
Consider `C=CC(=O)N1CCC(Nc2cnc3[nH]cc(-c4ccc(F)nc4)c3n2)CC1` [Example 207, 1-(4-{[7-(6-fluoropyridin-3-yl)-5H-pyrrolo[2,3-b]pyrazin-2-yl]amino}piperidin-1-yl)prop-2-en-1-one], for which the half-life at 1 μM is above 6 h.
For `C=CC(=O)N1C[C@H](C)C[C@@H](Nc2ncnc3[nH]ccc23)C1` [Example 74, 1-[(3R,5R)-3-Methyl-5-(7H-pyrrolo[2,3-d]pyrimidin-4-ylamino)piperidin-1-yl]prop-2-en-1-one], the half-life at 1 μM was determined as 1.72 h.
For the compound `C=CC(=O)N1CCN(c2cnc3[nH]cc(C(=O)NC(C)C)c3n2)CC1(C)C` [Example 293, 2-(4-acryloyl-3,3-dimethylpiperazin-1-yl)-N-(propan-2-yl)-5H-pyrrolo[2,3-b]pyrazine-7-carboxamide], the half-life at 1 μM is above 6 h.
Turning to `C=CC(=O)N1CCC(Nc2cnc3[nH]ccc3n2)CC1` [Example 176, 1-[4-(5H-pyrrolo[2,3-b]pyrazin-2-ylamino)piperidin-1-yl]prop-2-en-1-one], the half-life at 1 μM is above 6 h.
